What all share (type): cell-based
In one test the test system is FUDDLS. The test is described as follows: MTT assay, cell viability. The note with it: Sarcoma, 72 hours, read-out: IC50 (μM, Mean ± SD). Here is the method: (§1) Cells were cultured in RPMI-1640 (RT-112, KMS-11, SNU-16, HT-29, HCT-116, NCI—H520, Hep3B, PLC/PRF/5, HL-60, MOLT-4) and DMEM (HepG2, MCF-7, MDA-MB-231) with 10% FBS (v/v) and Penicillin/Streptomycin (100 U/ml). FU-DDLS-1 cell line was maintained in DMEM:F12 medium with 10% FBS. LiSa-2 cell line was maintained in IMDM/RPMI-1640 in a 4:1 ratio supplemented with 10% FBS, 2 mmol/L L-glutamine, and 0.1 mg/mL gentamicin. Human umbilical vein endothelial cells (HUVECs) were grown to confluence on 1% collagen, and maintained in 90% Medium 199 with 25 U/ml heparin, 30 μg/ml endothelial cell growth supplement (ECGS) adjusted to contain 1.5 g/L sodium bicarbonate, 10% FBS and Penicillin/Streptomycin (100 U/ml) Cultures were maintained at 37° C. in a humidified atmosphere of 5% CO2/95% air.
(§2) Cells were seeded in 96-well plates (5,000 cells/well) and incubated overnight for attachment, and were then treated with indicated agents in 10% FBS-supplemented medium for 72 hours. The medium was replaced with MTT (0.5 mg/mL) at 37° C. for 1 hours. After removal of medium, the cells were lysed with 100 μL per well dimethyl sulfoxide (DMSO), and absorbance at 550 nm was measured with microplate reader. The relative cell viability (%) was expressed as a percentage relative to a DMSO control cells.

For the next test, the system named is HCT-116. Kind of test: MTT assay, cell viability. The note with it: Homo sapiens; HCT-116, Colorectal, 72 hours; read-out: IC50 (μM, Mean ± SD). As to the method: as §1, §2
A general note: Formazan colour is commonly taken as a measure of viable cells.

The next test relates to HT-29. Kind of test: MTT assay, cell viability. The note with it: Homo sapiens; HT-29, Colorectal, 72 hours; read-out: IC50 (μM, Mean ± SD). Here is the method:
as §1, §2

The test system of a further test is Hep3B. The test is described as follows: MTT assay, cell viability. Particulars: Homo sapiens, Liver, 72 hours, read-out: IC50 (μM, Mean ± SD). Here is the method:
as §1, §2

A further test deals with HepG2. The test is described as follows: MTT assay, cell viability. The note with it: Homo sapiens; HepG2, Liver, 72 hours; read-out: IC50 (μM, Mean ± SD). Here is the method: as §1, §2
The subject of the next test is KMS-11. The test is described as follows: MTT assay, cell viability. Particulars: Homo sapiens; KMS-11, Myeloma, 72 hours; read-out: IC50 (μM, Mean ± SD). Here is the method:
as §1, §2

The test system of a further test is LISA-2. Kind of test: MTT assay, cell viability. Particulars: LISA-2, Sarcoma, 72 hours; read-out: IC50 (μM, Mean ± SD). As to the method: as §1, §2
Another test concerns MCF-7. The test is described as follows: MTT assay, cell viability. Particulars: Homo sapiens, MCF7; MCF-7, Breast, 72 hours; read-out: IC50 (μM, Mean ± SD). As to the method:
as §1, §2

The test system of a further test is MDA-MB-231. Kind of test: MTT assay, cell viability. Particulars: Homo sapiens; MDA-MB-231, Breast, 72 hours; read-out: IC50 (μM, Mean ± SD). Here is the method: as §1, §2
Another test has as its system PLC/PRF/5. The test is described as follows: MTT assay, cell viability. The note with it: Homo sapiens; PLC/PRF/5, Liver, 72 hours; read-out: IC50 (μM, Mean ± SD). Here is the method:
as §1, §2

For another test, the system named is RT-112. Kind of test: MTT assay, cell viability. The note with it: Homo sapiens; RT-112, Bladder, 72 hours; read-out: IC50 (μM, Mean ± SD). As to the method:
as §1, §2

The next test relates to RT-112 cells. Kind of test: Cell cycle distribution by flow cytometry. The note with it: FIG. 3A.

Experimental findings from US10624897B2, “Chlorobenzene substituted azaaryl compounds” (TAIPEI MEDICAL UNIVERSITY, priority 2015, dated 2020) are described below.

As a reminder, the IC50 is the concentration that inhibits the measured activity by half. As for `CCN1CCN(c2ccc(Nc3cc(N(C)C(=O)Nc4c(Cl)c(OC)cc(OC)c4Cl)ncn3)cc2)CC1` [BGJ-398, 3-(2,6-Dichloro-3,5-dimethoxy-phenyl)-1-{6-[4-(4-ethylpiperazin-1-yl)-phenylamino]-pyrimidin-4-yl}-1-methyl-urea], the IC50 worked out at 1.45 ± 0.17 µM with FUDDLS; 3.98 ± 0.06 µM with HCT-116; 4.77 ± 0.14 µM with HT-29; 0.72 ± 0.12 µM with Hep3B; 5.84 ± 0.25 µM in the test on HepG2; 0.2 ± 0.05 µM with KMS-11. Besides, the IC50 with LISA-2 is 6.13 ± 0.06 µM; with MCF-7, 5.07 ± 0.63 µM; in the test on MDA-MB-231 it was 4.27 ± 0.83 µM; in the test on PLC/PRF/5, 2.94 ± 0.11 µM; with RT-112, 1.7 ± 0.05 µM. Further, in the test on RT-112 cells (24 h), the “G0/G1 cell cycle arrest” value is reported as “also observed”. Also, the “accumulation of the sub-G1 phase (apoptotic cell death)” value in the test with RT-112 cells (48 h to 72 h) was “induced pronounced apoptosis”.
